According to US20240293513A1, “USE OF MAZDUTIDE” (INNOVENT BIOLOGICS (SUZHOU) CO., LTD., priority 2021, published 2024):

Experiments:
[1] = Stability of the drug substance; type: physicochemical; details: ≤−20° C.
[2] = Solubility of the investigational product; type: physicochemical; details: 20 mM tris(hydroxymethyl)aminomethane solutions and 150 mM NaCl solutions with pH 8.0
[3] = system: patients with diabetes; experiment: Safety assessment in patients with type 2 diabetes (12-week dose escalation); type: in vivo, human
Method: (§1) Mazdutide and placebo were both administered subcutaneously once weekly. The doses were prepared and administered by study nurses according to the manual instructions of the study drugs. • 1.5 Inclusion criteria
(§2) In this study, the enrollment of 42 patients with type 2 diabetes with uncontrolled glycosylated hemoglobin despite at least 2 months of lifestyle intervention or treatment with a stable dose of metformin (≥1000 mg/day or the maximum tolerated dose). Three cohorts were included in this study: cohort 1 (n=14), cohort 2 (n=14), and cohort 3 (n=14). Subjects in each cohort were randomized in an 8:4:2 ratio into the mazdutide treatment group (n=8), the placebo group (n=4), and the dulaglutide 1.5 mg treatment group (n=2). In cohorts 1, 2, and 3, the active control drug, dulaglutide, was administered at 1.5 mg QW for 12 weeks, and the dosing regimens for mazdutide and placebo are described below:
(§3) Cohort 1: Subjects were administered with a starting dose of 1.0 mg once weekly for 4 weeks. If the treatment was well tolerated*, the dose was adjusted to 2.0 mg, and was administered once weekly for 4 weeks. If the treatment was well tolerated*, the dose was adjusted to 3.0 mg, and was administered once weekly for 4 weeks. (ascending at a rate of 1 mg/4 weeks to the target dose).
(§4) Cohort 2: Subjects were administered with a starting dose of 1.5 mg once weekly for 4 weeks.
If the treatment was well tolerated*, the dose was adjusted to 3.0 mg, and was administered once weekly for 4 weeks. If 3.0 mg was not well tolerated but still met the tolerance criteria, the next dose was investigated in cohort 2 (backup 1): if the dose was well tolerated, the study proceeded to 4.5 mg. The treatment was given once weekly for 4 weeks, if 4.5 mg was not well tolerated but still met the tolerance criteria, the next dose was investigated in cohort 2 (backup 2). (ascending at a rate of 1.5 mg/4 weeks to the target dose).
Cohort 2 (backup 2): If 4.5 mg was not tolerated, the treatment should be discontinued for 1 week and resumed at the dose of 3.75 mg for 2 weeks until the end of study. […]

[4] = system: healthy subjects; experiment: Single dose study in healthy subjects (18P-MC-OXAA), safety and tolerability; type: in vivo, human
Method: In another aspect of the present invention, provided is a pharmaceutical composition for reducing a uric acid level in a patient, comprising a compound of formula (I) or a pharmaceutically acceptable salt thereof, and at least one pharmaceutically acceptable carrier.
A single dose study in healthy subjects (18P-MC-OXAA): a single center, double-blind, randomized, placebo-controlled SAD study has been completed (ascending doses of 0.03 mg, 0.1 mg, 0.3 mg, 1.0 mg, 2.5 mg, and 5.0 mg), which mainly assessed the safety, tolerability, and PK/PD profile of mazdutide in healthy subjects.

[5] = system: patients with obesity or overweight; experiment: Safety assessment in patients with obesity or overweight (12-week dose escalation); type: in vivo, human
Method: as §1
I. Subjects with obesity or overweight meeting all of the following criteria were included in the study: • 1. Aged 18-75 years (inclusive), male or female: • 2. For obesity, BMI≥28.0 kg/m^2: for overweight, 24≤ BMI<28.0 kg/m^2 with at least one of the following: i, increased appetite, intolerable hunger before meals, and increased food consumption: ii, comorbidity with one or more of pre-diabetes (impaired fasting glucose and/or impaired glucose tolerance), hypertension, dyslipidemia (see appendix 4 for reference criteria), and fatty liver (within 6 months before the screening); iii, comorbidity with weight-bearing joint pain: iv, obesity-related dyspnea or obstructive sleep apnea syndrome: • 3. Weight change<5% after at least 12 weeks of diet/exercise weight control at the time of screening
In this study, the enrollment of 36 patients with overweight or obesity having a weight change of less than 5% after at least 12 weeks of diet/exercise control was planned. Three cohorts were included in this double-blind study: cohort 1 (n=12), cohort 2 (n=12), and cohort 3 (n=12). Subjects in each cohort were randomized in a 2:1 ratio into the mazdutide treatment group (n=8) and the placebo group (n=4). The subcutaneous dosing regimens for mazdutide or placebo in cohort 1, cohort 2 and cohort 3, are described below (as shown in FIG. 1):
as §3
Cohort 2: Subjects were administered with a starting dose of 1.5 mg once weekly for 4 weeks. If the treatment was well tolerated*, the dose was adjusted to 3.0 mg, and was administered once weekly for 4 weeks. If the treatment was well tolerated*, the dose was adjusted to 4.5 mg, and was administered once weekly for 4 weeks (ascending at a rate of 1.5 mg/4 weeks to the target dose).
Cohort 3: Treatment in cohort 3 was started when the 4-week treatment at 1.5 mg was completed and well tolerated in the subjects in cohort 2: if 1.5 mg was not tolerated in cohort 2, 2.0 mg and higher doses were not investigated in cohort 3. In this cohort, subjects were administered with a starting dose of 2.0 mg once weekly for 4 weeks. If the treatment was well tolerated*, the dose was adjusted to 4.0 mg, and was administered once weekly for 4 weeks. If the treatment was well tolerated*, the dose was adjusted to 6.0 mg, and was administered once weekly for 4 weeks. (ascending at a rate of 2 mg/4 weeks to the target dose).
For patients with obesity or overweight: By Mar. 15, 2021, 36 subjects were enrolled and 36 were included in the analysis. […] Only 2 patients in cohort 1 had mild urticaria. […] The gastrointestinal events occurred at a higher rate in the treatment group than in the placebo group, which complies with the mechanism of action of the drug.

[6] = system: uric acid; experiment: Change in uric acid from baseline in subjects with type 2 diabetes; type: in vivo, human; details: 1.5 mg QW for 12 weeks, day 85 post-dose vs baseline, N = 6
Method: FIG. 3 illustrates the change in uric acid from baseline after administration in subjects with diabetes.
as §2, §3, §4
If the treatment was well tolerated*, the dose was adjusted to 3.0 mg, and was administered once weekly for 4 weeks. […]

With `CC(C)C[C@H](NC(=O)[C@H](CC(C)C)NC(=O)[C@H](Cc1c[nH]c2ccccc12)NC(=O)[C@H](CCC(=O)O)NC(=O)[C@@H](NC(=O)[C@H](Cc1ccccc1)NC(=O)[C@H](CCC(=O)O)NC(=O)[C@H](CCCCNC(=O)COCCOCCNC(=O)COCCOCCNC(=O)CC[C@H](NC(=O)CCCCCCCCCCCCCCCCCCC(=O)O)C(=O)O)NC(=O)[C@H](C)NC(=O)[C@H](CCCCN)NC(=O)[C@H](CCCCN)NC(=O)[C@H](CCC(=O)O)NC(=O)[C@H](CC(=O)O)NC(=O)[C@H](CC(C)C)NC(=O)[C@H](Cc1ccc(O)cc1)NC(=O)[C@H](CCCCN)NC(=O)[C@H](CO)NC(=O)[C@H](Cc1ccc(O)cc1)NC(=O)[C@H](CC(=O)O)NC(=O)[C@H](CO)NC(=O)[C@@H](NC(=O)[C@H](Cc1ccccc1)NC(=O)[C@@H](NC(=O)CNC(=O)[C@H](CCC(N)=O)NC(=O)C(C)(C)NC(=O)[C@@H](N)Cc1c[nH]cn1)[C@@H](C)O)[C@@H](C)O)C(C)C)C(=O)N[C@@H](CCC(=O)O)C(=O)NCC(=O)NCC(=O)N1CCC[C@H]1C(=O)N[C@@H](CO)C(=O)N[C@@H](CO)C(=O)NCC(N)=O` [mazdutide] as the compound, how does the Stability [1] read?
The Stability was “The drug substance is stable at ≤−20 °C”.

What about the solubility [2] of the same compound?
Its solubility is at least 10000 µg/mL.

What about the “acute pancreatitis, severe hypoglycemia, allergic reaction or injection site reaction” value [3] of the same compound?
Its value is “no acute pancreatitis, severe hypoglycemia, allergic reaction or injection site reaction”.

And the “dose escalation termination-related AEs” value [3]?
The value was “no dose escalation termination-related AEs”.

And the “overall safety and tolerance” value ([3]; sc once weekly, 12 weeks)?
The value was “good overall safety and tolerance”.

And the tolerability ([4]; healthy subjects, dose ascended to 2.5 mg)?
The tolerability was “tolerated”.

And the “subjects with gastrointestinal-related AEs (mainly nausea and vomiting)” value ([4]; healthy subjects, dose ascended to 5 mg)?
The value was 6 subjects.

What about the “maximum tolerated dose (MTD) for single-dose administration” value ([4]; healthy subjects, single ascending doses 0.03-5.0 mg) of the same compound?
Its value is 2.5 mg.

And the safety and tolerability ([4]; single-dose and multi-dose escalation studies in healthy populations)?
The safety and tolerability was “good safety and tolerability”.

What about the SAEs [5] of the same compound?
The SAEs was “no SAEs”.

What about the acute pancreatitis [5] of the same compound?
The acute pancreatitis was “no acute pancreatitis”.

What about the “discontinuation or withdrawal due to AEs” value [5] of the same compound?
Its value is “no discontinuation or withdrawal due to AEs”.

And the “dose escalation termination-related AEs” value [5]?
Its value is “no dose escalation termination-related AEs”.

And the hypoglycemia events [5]?
Its hypoglycemia events is “no hypoglycemia events”.

What about the severe adverse events [5] of the same compound?
Its severe adverse events is “no severe adverse events”.

And the “patients with mild urticaria” value ([5]; cohort 1 (1 mg-2 mg-3 mg))?
The value was 2 patients.

What about the “overall safety and tolerance” value ([5]; sc once weekly, 12 weeks) of the same compound?
Its value is “good overall safety and tolerance”.

What about the “anorexia rate of occurrence” value ([5]; treatment group) of the same compound?
Its value is 29.2%.

And the “diarrhea rate of occurrence” value ([5]; treatment group)?
The value was 25%.

And the “nausea rate of occurrence” value ([5]; treatment group)?
Its value is 16.7%.

And the “Gastrointestinal adverse events rate” value ([5]; treatment group, 15/24 cases)?
The value was 62.5%.

And the average heart rate ([5]; versus placebo group)?
Its average heart rate is “increase in average heart rate over the placebo group”.

Which “Uric acid Mean of change” value [6] does the source give for Dulaglutide here?
Its value is 16.67 µmol/L.
